# Source: US9511086B2, “Method for improving immune system function by administering agents that inhibit DNA-dependent protein kinase-directed apoptosis” (The Board of Trustees of the Leland Stanford Junior …, priority 2010, dated 2016)
# Assays:
# [1] = system: CD4+CD45RO− T cells from RA patients; test: T-cell apoptosis by flow cytometry staining for PI, RA T cells; assay type: cell-based, human
# Procedure: FIG. 5. Inhibition of DNA-PKcs activity protects RA T cells from apoptosis. CD4+CD45RO− T cells were isolated from 6 control donors and 7 RA patients. Cells were maintained in culture without stimulation for 48 h and then were treated with the DNA-PKcs inhibitor IC86621 (50 nM, 100 nM) or vehicle for 24 h. Cells were harvested and (A) T-cell apoptosis was measured by flow cytometry staining for PI. Representative cytometric data from one patient and one control are shown. (B) Frequencies of PI-positive T-cells in the absence and presence of the DNA-PKcs inhibitor from 6 controls and 7 RA patients are presented as mean±SEM.
# FIG. 6. Silencing of the DNA-PKcs gene reduces apoptosis in RA T cells. CD4+CD45RO− T cells were purified from 3 control donors and 3 RA patients and transfected with control or DNA-PKcs specific siRNA oligonucleotides by nucleofection. (A, B) Twenty-four hours after transfection, DNA-PKcs transcript levels were quantified by qPCR, and DNA-PKcs protein levels were detected by Western blotting. (C) T-cell apoptosis was analyzed by staining for PI. Representative data from one patient and one control are shown. (D) Cell apoptosis from 3 control and 3 RA samples are presented as mean±SEM.
# FIG. 7. […] (A) CD4+CD45RO− T cells were isolated and cultured in the presence of the indicated enzyme inhibitors for 24 h. T-cell apoptosis was quantified through flow cytometry staining for PI. (B) Cells were maintained in culture without stimulation for 48 h and then were treated with the JNK inhibitor. PI-positive T cells were measured after 24 h of treatment with the JNK inhibitor II (5 μM or 10 μM) or vehicle. Frequencies of apoptotic T cells from 6 controls and 7 RA patients are presented as mean±SEM. (C) Representative flow cytometry results from one control and one patient. (D) Flow cytometry analysis of phosphorylated JNK levels in control and RA T cells after culturing without mitogenic stimulation for 72 h. Representative data from one patient and one control are presented. (E) Expression of pJNK protein in n=6 RA and n=6 control samples at 72 h is given as MFI of FITC-pJNK. (F) Flow cytometry analysis of phosphorylated JNK levels in freshly isolated control and RA naïve CD4 T cells. Expression of pJNK protein in n=7 RA and n=7 control samples at day 0 is given as MFI of FITC-pJNK. (G) Quantification of JNK and pJNK protein expression at 72 h by Western blotting. (H) Relative expression levels of pJNK were quantified by measuring band intensities adjusted by total JNK in 6 RA patients and 6 control donors. Data are presented as mean±SEM. (I) CD4+CD45RO− T cells were purified from RA donors and transfected with control or DNA-PKcs-specific siRNA oligonucleotides by nucleofection. Twenty-four hours after transfection, DNA-PKcs and pJNK protein levels were detected by Western blotting. A representative blot from three independent experiments is shown.
# Peripheral blood mononuclear cells (PBMC) were separated from whole blood with Lymphocyte Separation Medium (Mediatech Inc., Herndon, Va.). CD45RO^− cells were negatively selected with microbeads (Miltenyi Biotec Inc., Auburn, Calif.), and the naïve CD4^+CD45RO^− population was subsequently selected with CD4 microbeads (autoMACS, Miltenyi Biotec Inc.).
# CD4^+CD45RO^− T cells were maintained in a resting state in DMEM without mitogenic stimulation for three days. In selected experiments, T-cell homeostatic cytokines were supplemented. To test for the role of signaling networks in mediating apoptosis, the following inhibitors were added to the cultures at day 0: DNA-PKcs inhibitor IC86621 (Sigma-Aldrich, St. Louis, Mo.), JNK inhibitor II (Calbiochem, La Jolla, Calif.), p38 inhibitor (Alexis Biochemicals, Plymouth Meeting, Pa., SB203580), CaM inhibitor (Calbiochem), NE-KB inhibitor (Calbiochem), and AKT inhibitor (Calbiochem). […]
# Bmf = Bmf protein level by flow cytometry in RA T cells; assay type: cell-based, human; conditions: treated vs untreated
# Procedure: (§1) FIG. 8. The DNA-PKcs-JNK pathway upregulates the apoptogenic molecules Bim and Bmf in RA CD4+ T cells. CD4+CD45RO− T cells were isolated from the peripheral blood of 6 controls and 6 RA patients. Cells were maintained in culture without mitogenic stimulation for 72 h. (A) Puma, Noxa, Bim and Bmf transcript levels in freshly isolated cells were quantified by qPCR. Data are presented as mean±SEM. (B) Flow cytometry analysis of Bim levels in control and RA naïve T cells after 72 h of culture. Expression of Bim protein in n=5 RA and n=5 controls samples is given as MFI of Alexa Fluor 488 Bim. (C) Flow cytometry analysis of Bmf levels in control and RA naïve T cells. Expression of Bmf protein in n=6 RA and n=4 controls samples is given as MFI of PE Bmf. (D) Bcl-2 protein levels were analyzed by flow cytometry. Expression of Bcl-2 protein in n=6 RA and n=6 control samples is given as MFI of FITC Bcl-2. (E) Bim protein level in the absence and presence of the DNA-PKcs inhibitor were analyzed by flow cytometry in samples from 4 RA patients. […]
# (§2) For intracellular staining, cells were fixed directly with 1.5% formaldehyde for 10 min at room temperature and resuspended in 90% methanol. […] Proteins or 8-oxoguanine expression were detected by an LSRII flow cytometer (BD Biosciences). Data were analyzed by FlowJo software (Tree Star Inc., Ashland, Oreg.). […]
# Bim = Bim protein level by flow cytometry in RA T cells; assay type: cell-based, human; conditions: treated vs untreated
# Procedure: as §1, §2
# rheumatoid arthritis = conditions: cited from earlier work
# IL-1R type I = target: T1, IL-1R type I (Homo sapiens, UniProt P14778); conditions: cited from earlier work
# T1 sequence (P14778 18-569): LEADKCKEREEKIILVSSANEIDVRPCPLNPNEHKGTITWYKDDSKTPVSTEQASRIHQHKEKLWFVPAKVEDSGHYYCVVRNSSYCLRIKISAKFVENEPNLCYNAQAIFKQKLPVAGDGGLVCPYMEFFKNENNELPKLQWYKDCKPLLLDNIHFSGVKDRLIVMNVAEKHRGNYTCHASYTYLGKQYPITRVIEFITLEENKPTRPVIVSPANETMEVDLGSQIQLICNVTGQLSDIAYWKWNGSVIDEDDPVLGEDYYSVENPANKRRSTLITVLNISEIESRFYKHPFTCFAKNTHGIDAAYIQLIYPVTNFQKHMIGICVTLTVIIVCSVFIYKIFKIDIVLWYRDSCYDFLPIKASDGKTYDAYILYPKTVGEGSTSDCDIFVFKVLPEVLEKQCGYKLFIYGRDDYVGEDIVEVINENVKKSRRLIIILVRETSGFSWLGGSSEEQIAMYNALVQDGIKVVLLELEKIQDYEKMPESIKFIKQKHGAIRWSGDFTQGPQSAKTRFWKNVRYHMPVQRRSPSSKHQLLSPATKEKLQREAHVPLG
# TNFα = TNFα (Homo sapiens, UniProt P01375); conditions: cited from earlier work
# [2] = system: CD4+CD45RO− T cells from RA patients and controls; test: T-cell apoptosis (PI) with homeostatic cytokines; assay type: cell-based, human; conditions: 72 h culture; IL-2 20 U/ml, IL-7 20 ng/ml, IL-15 10 ng/ml; similar in control and RA T cells
# Procedure: FIG. 1. […] CD4+CD45RO− T cells were isolated from the peripheral blood of RA patients and controls. Cells were maintained in culture without mitogenic stimulation for 72 h. (A) T cells undergoing apoptosis were identified by Annexin V and 7-AAD staining in patient-derived and control samples. Data are given as mean±SEM from 6 patients and 6 controls. (B) Representative data from one patient and one control collected after 72 h are shown. (C) Cells were maintained in culture with IL-2 (20 U/ml), IL-7 (20 ng/ml), IL-15 (10 ng/ml), or a mixture of the three (Mix) for 72 h. T cells undergoing apoptosis were identified by PI staining. Data are given as mean±SEM from 7 patients and 5 controls. (D) DNA breaks were quantified by comet assay after 72 h. Data are given as mean±SEM of 7 patients and 6 controls with a minimum of 90 individual cells analyzed in each sample.
# To quantify T-cell apoptosis, CD4^+CD45RO^− cells were washed and suspended in 500 μl FACS buffer supplemented with EasyComp Blank Particles (Spherotech, Lake Forest, Ill.). Uptake of PI (Sigma-Aldrich) was determined by flow cytometry. Apoptotic cells were detected with PE-Annexin V (BD Biosciences, San Jose, Calif.) and 7-AAD (BD Biosciences).
# [3] = system: B cells in blood and tissue; conditions: cynomolgus monkeys; cited from earlier work
# TNFα, sequence (P01375 77-233 limits assumed): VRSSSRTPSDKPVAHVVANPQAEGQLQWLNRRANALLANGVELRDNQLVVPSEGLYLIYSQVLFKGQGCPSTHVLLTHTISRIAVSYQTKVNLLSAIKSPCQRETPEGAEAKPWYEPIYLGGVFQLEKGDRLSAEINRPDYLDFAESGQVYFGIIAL
molecule,measurement,setting,value
"O=C1c2ccccc2-c2n[nH]c3cccc1c23 [JNK inhibitor II, anthra(1,9-cd)pyrazol-6(2H)-one]",T cell death in screen with panel of signal pathway inhibitors,"[1]; RA T cells cultured with inhibitor for 24 h, PI staining",able to protect RA T cells from dying
same,death rate in dose-response experiments,"[1]; RA T cells, 48 h culture then 5 μM or 10 μM for 24 h",normalize the death rate
same,effectiveness of 10 μM compared with 5 μM,"[1]; RA T cells, PI-positive cells after 24 h of treatment",more effective
same,intracellular Bmf levels,Bmf,reduced
same,intracellular Bim levels,Bim,reduced
"CN(Cc1cnc2nc(N)nc(N)c2n1)c1ccc(C(=O)N[C@@H](CCC(=O)O)C(=O)O)cc1 [MTX, Methotrexate]",patients having some response,rheumatoid arthritis,70%
Anakinra: human recombinant IL-1 receptor antagonist,affinity of binding to IL-1R type I,IL-1R type I,same affinity as IL-1
Etanercept,affinity for TNFα of the dimeric receptor relative to the monomeric receptor,TNFα,50-1000 fold
"IL-15: growth-promoting, T-cell homeostatic cytokine",apoptosis rates / T-cell attrition,[2],prevented only one-third of the T-cell attrition
LymphoStat-B: fully human IgG1λ monoclonal antibody that neutralizes human BlyS,B cells in blood and tissue,[3],selectively reduces B cells in blood and tissue
same,toxicity,[3],no overt toxicity
"IL-7: growth-promoting, T-cell homeostatic cytokine (protein, UniProt P13232 26-177, looked up) Interleukin-7: DCDIEGKDGKQYESVLMVSIDQLLDSMKEIGSNCLNNEFNFFKRHICDANKEGMFLFRAARKLRQFLKMNSTGDFDLHLLKVSEGTTILLNCTGQVKGRKPAALGEAQPTKSLEENKSLKEQKKLNDLCFLKRLLQEIKTCWNKILMGTKEH",apoptosis rates / T-cell attrition,[2],prevented only one-third of the T-cell attrition
